Values quoted from earlier work as cited in patent US9447074B2, “Compounds” (Glaxo Group Limited, priority 2011, dated 2016).

Key:
B lymphoma (BKS-2) = details: murine model of B lymphoma (BKS-2)
[1] = tested on: B-Cell non-Hodgkin's lymphoma (NHL)
allergic rhinitis [2] = details: dosed intranasally, phase I/II
allergic rhinitis [3] = details: phase II

COc1cc(/C=C/C(=O)CC(=O)/C=C/c2ccc(O)c(OC)c2)ccc1O [curcumin]
tumour burden as measured by the total splenocyte number (B lymphoma (BKS-2)): significant reduction of tumour burden

COc1cc(Nc2ncc(F)c(Nc3ccc4c(n3)N(COP(=O)(O)O)C(=O)C(C)(C)O4)n2)cc(OC)c1OC [Example R788, fostamatinib disodium]
therapeutic benefit ([1]; patients with DLBCL and CLL/SLL): therapeutic benefit
tolerability ([1]; patients with relapsed or refractory B-Cell NHL): well-tolerated

Oc1cccc(Nc2ncc(F)c(Nc3cccc(O)c3)n2)c1 [Example R112]
PGD2 (allergic rhinitis [2]): statistically significant decrease
clinical safety (allergic rhinitis [2]): safe across a range of indicators
efficacy versus placebo (allergic rhinitis [3]): lack of efficacy versus placebo
